# Where a name gives a salt, the structure may show the parent alone.
# What was measured:
# [1] = system: SHH acylation in HEK-293 SHH+ cells; test: In-cell YnC15 tagging assay of SHH acylation; type: cell-based, human; details: inhibitors 20 µM, YnC15, AzTB ligation; for inhibition of SHH acylation (YnC15 tagging) by in-gel fluorescence: IGF; for inhibition of SHH acylation assessed by increased molecular weight in anti-SHH blotting: α-SHH western blot
# Protocol: In-Cell YnC15 Tagging Assay
# HEK293a SHH+ cells (500,000 cells/well) were plated in a 6-well plate in DMEM/FBS (3 mL/well) and cultured for 24 h. Cells were treated with inhibitors in DMSO (20 µM), two RUSKI-201 (20 µM) blind-positive controls and two DMSO (7.5 µL) blind-negative controls.
# After 1 h, YnC15 (3 µL, 20 mM in DMSO) was added and cells cultured for a further 6 h before washing with PBS. Cells were lysed in PBS with Triton X-100 (1%), SDS (0.1% (w/v)) and Complete EDTA-free protease inhibitor cocktail (Roche Diagnostics). Cells were removed from plates by scraping, and lysates centrifuged (13,000 g, 10 min, 4 °C). The protein concentration of the supernatant was estimated using the DC Protein Assay (Bio-Rad) and adjusted to 1 mg/mL with lysis buffer. AzTB (1 µL, 10 mM in DMSO), CuSO4 (2 µL, 50 mM in H2O), TCEP (2 µL, 50 mM in H2O) and TBTA (1 µL, 10 mM in DMSO) were combined, and this mixture (6 µL) added to the lysate (100 µL). Samples were shaken at RT for 1 h, then proteins precipitated by addition of methanol (200 µL), chloroform (50 µL) and water (100 µL) followed by centrifugation (13,000 g, 5 min, 4 °C). The upper aqueous layer was removed without disturbing the protein layer at the interphase, methanol (0.5 mL) was added, and the precipitated proteins isolated by centrifugation (13,000 g, 10 min, 4 °C). Protein pellets were […]
# (§1) washed twice with methanol, briefly air-dried and re-dissolved in PBS containing SDS (0.2% (w/v)) and DTT (0.1 mM) using sonication to a final concentration of 1 mg/mL.
# (§2) 10 µg of protein were separated on a 15% SDS-polyacrylamide gel. Fluorescence was recorded using a Typhoon imager (GE Healthcare; excitation laser: 532 nm, emission filter:
# (§3) Proteins were transferred to a nitrocellulose membrane by wet transfer (100 V, 1 h), and membranes blocked with BSA (5% (w/v)) in TBS-T (50 mM TRIS, 150 mM NaCl, 0.1% Tween-20, pH 7.5) for 1 h at RT, followed by overnight incubation at 4°C with rabbit α-SHH (Santa Cruz Biotechnology; sc-9024; 1:200) in TBS-T with BSA (0.5% (w/v)) or mouse α-Tubulin (Santa Cruz Biotechnology; sc-8035; 1:200) in TBS-T with BSA (0.5% (w/v)). Membranes were washed with TBS-T (4 × 5 min) and incubated at RT for 1 h with HRP-conjugated Goat-α-mouse IgG (Advansta; 1:10,000) in TBS-T with BSA (0.5% (w/v)) or Goat-α-rabbit IgG (Advansta; 1:10,000) in TBS-T with BSA (0.5% (w/v)). Membranes were washed with TBS-T (4 × 5 min) and developed with Luminata Crescendo Western HRP substrate (Millipore) on a Fujifilm LAS-3000 imager. YnC15-labelled SHH band intensities were quantified using ImageJ 1.50i (National Institute of Health, USA).
# HEK293a SHH+ cells (5,000 cells/well) were plated in a 96-well plate in DMEM/FBS […]
# (50 µL/well) and cultured for 24 h. […]
# [2] = system: HEK-293 SHH+ cells; test: MTS viability assay; type: cell-based, human; details: 72 h, inhibitors 0.14-100 µM
# Protocol: as §1, §2
# as §3, with “Membranes were washed with TBS-T (4 × 5 min) and developed with Luminata Crescendo Western HRP substrate (Millipore) on a Fujifilm LAS-3000 imager.” left out
# HEK293a SHH+ cells (5,000 cells/well) were plated in a 96-well plate in DMEM/FBS (50 µL/well) and cultured for 24 h. […] The absorption at 490 nm was recorded using an EnVision Xcite 2104 and responses normalised to vehicle control and background corrected to Puromycin-treated samples.
# [3] = system: HH signalling in SHH-Light2 cells; test: SHH-Light2 signalling assay (Firefly luciferase); type: cell-based; details: inhibitors 0.041-30 µM
# Protocol: (§4) SHH-Light2 Signalling Assay
# (§5) HEK293a SHH+ cells (120,000 cells/well) were plated in a 12-well cell culture treated plate (Nunc) in DMEM/FBS (1 mL/well) and cultured for 24 h. Cells were washed with PBS, followed by the addition of DMEM/FBS (1 mL) containing DMSO (0.2%) or varying inhibitor concentrations in DMSO (0.041-30 µM). SHH-Light2 cells (20,000 cells/well) were plated in a 96-well plate in DMEM/FCS (50 µL/well). After 24 h, conditioned medium (300 µL) was removed from each well of the HEK293a SHH+ cells, centrifuged (1,000 g, 10 min), and added to three wells of SHH-Light2 cells (100 µL/well, 150 µL final volume). SHH-Light2 cells were cultured for a further 48 h, and washed with PBS prior to analysis. Firefly and Renilla luciferase activity was recorded using the Dual-Luciferase reporter system (Promega Corporation, USA).
# (§6) Passive lysis buffer (20 µL) was added to each well and cells incubated for 30 min at RT. The lysate (5 µL) was transferred to a white opaque 96-well plate (Corning, 3362). Luciferase Assay Reagent II (20 µL/well) was added and the luminescence immediately recorded using a SpectraMax i3x spectrophotometer (Molecular Devices LLC). Stop&Glo (1x) substrate in Stop&Glo buffer (20 µL/well) was added and the luminescence immediately recorded. […]
# [4] = target: BSA; parameters: method as in PMID 11964183; details: read-out: Kd of BSA for palmitic acid; cited from earlier work
# [5] = Detergent/BSA titration for polarised emission of Pal-SHH-FAM (fluorescence anisotropy); details: titration with Pal-SHH-FAM; read-out: detergent concentration required for half-maximal polarised signal (EC50)
# Protocol: Fluorescence measurements were recorded on an EnVision Xcite 2104 (PerkinElmer).
# FAM-labelled peptides were measured using a FITC FP D505fp mirror module, FITC FP 480 nm excitation filter (30 nm bandwidth), FITC FP P-pol 535 nm first emission filter (40 nm bandwidth), and FITC FP S-pol 535 nm second emission filter (40 nm bandwidth). Continuous reaction monitoring was conducted using measurement height = 9.52 mm, 8 flashes/well, PMT gain = 319, and G-factor = 1.09.
# TAMRA-labelled peptides were measured using a BODIPY TMR FP D555fp mirror module, BODIPY TMR FP 531 nm excitation filter (25 nm bandwidth), BODIPY TMR FP P-pol 579 nm first emission filter (25 nm bandwidth), and BODIPY TMR FP S-pol 579 nm second emission filter (25 nm bandwidth). Continuous reaction monitoring was conducted using measurement height = 6.5 mm, 200 flashes/well, PMT gain = 255, and G-factor = 1.6.
# Detergents (2 mM) or BSA (0.15 mM) were tested for generation of polarised fluorescence from Pal-SHH-FAM or SHH-FAM (0.1 µM) in 100 mM MES, 20 mM NaCl. Detergent and BSA titrations were performed using 2-fold serial dilutions.
# [6] = cited from earlier work
# [7] = target: T1, HHAT (Homo sapiens, UniProt Q5VTY9); test: Pilot HTS Acyl-cLIP screen of FDA-approved drugs, purified HHAT, stopped-assay conditions; type: biochemical; details: compounds screened at 25 μM
# T1 construct: FLAG (C); His (C); made in house; host or cells: HEK293a cells stably overexpressing HHAT-FLAG-His
# T1 sequence (Q5VTY9 whole entry): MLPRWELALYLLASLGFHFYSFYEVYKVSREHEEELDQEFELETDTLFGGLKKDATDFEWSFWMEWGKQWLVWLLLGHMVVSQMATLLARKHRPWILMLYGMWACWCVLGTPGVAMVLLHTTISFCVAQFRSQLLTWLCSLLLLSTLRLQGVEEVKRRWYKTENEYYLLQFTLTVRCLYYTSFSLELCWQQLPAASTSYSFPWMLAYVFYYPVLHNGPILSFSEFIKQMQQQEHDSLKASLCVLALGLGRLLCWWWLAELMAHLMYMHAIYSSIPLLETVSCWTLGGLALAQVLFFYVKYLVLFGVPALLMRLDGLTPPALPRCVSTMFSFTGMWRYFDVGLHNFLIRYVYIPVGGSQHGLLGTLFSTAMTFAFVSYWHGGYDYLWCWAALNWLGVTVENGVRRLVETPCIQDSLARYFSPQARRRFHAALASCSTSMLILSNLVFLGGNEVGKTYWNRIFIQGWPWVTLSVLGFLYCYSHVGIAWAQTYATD
# [8] = system: SHH-Light2 cells; test: Constitutive Renilla luciferase control for cellular viability in SHH-Light2 assay; type: cell-based
# Protocol: as §4, §5, §6
compound,measurement,setting,value
CN(C)CCCN1c2ccccc2CCc2ccc(Cl)cc21 [Clomipramine·HCl],inhibition of SHH acylation (YnC15 tagging) by in-gel fluorescence,[1]; listed as Clomipramine,inhibition
same,inhibition of SHH acylation (YnC15 tagging) by in-gel fluorescence,[1]; listed as clomipramine,showed inhibition of SHH acylation
same,inhibition of SHH acylation assessed by increased molecular weight in anti-SHH blotting,[1],did not show inhibition of SHH acylation
same,viability in MTS assay,[2]; listed as Clomipramine,cytotoxicity
same,viability in MTS assay,[2]; listed as clomipramine,decreased viability at high concentrations
same,concentration at which HH signalling is inhibited,[3]; listed as Clomipramine,30 µM
same,concentration at which HH signalling is inhibited,[3]; listed as clomipramine,> 30 µM
CCCCCCCCCCCCCCCC(=O)O [palmitic acid],Kd,[4],0.104 µM
Triton™ X-100 [TX-100],EC50,[5],180 µM
same,critical micelle concentration (CMC),[6],200 µM
"CCCCCCCCCCCCO[C@@H]1O[C@H](CO)[C@@H](O[C@H]2O[C@H](CO)[C@@H](O)[C@H](O)[C@H]2O)[C@H](O)[C@H]1O [DDM, n-dodecyl β-D-maltoside]",EC50,[5],150 µM
same,critical micelle concentration (CMC),[6],170 µM
CC(C)C[C@H]1C(=O)N2CCC[C@H]2[C@]2(O)O[C@](NC(=O)[C@@H]3C=C4c5cccc6[nH]c(Br)c(c56)C[C@H]4N(C)C3)(C(C)C)C(=O)N12 [Bromocriptine Mesylate],inhibition at 25 µM,[7],> 80%
same,inhibition of SHH acylation (YnC15 tagging) by in-gel fluorescence,[1]; listed as Bromocriptine,inhibition
same,inhibition of SHH acylation (YnC15 tagging) by in-gel fluorescence,[1]; listed as bromocriptine,showed inhibition of SHH acylation
same,inhibition of SHH acylation assessed by increased molecular weight in anti-SHH blotting,[1],did not show inhibition of SHH acylation
same,cytotoxicity in SHH-Light2 signalling assay,[8],general cytotoxicity

# — publication PMC6855259, “Acylation-coupled lipophilic induction of polarisation (Acyl-cLIP): a universal assay for lipid transferase and hydrolase enzymes” (Chemical Science, 2019)
